Laboratory results taken from patent publication US8552161B2, “Saponin compounds, methods of preparation thereof, use thereof and pharmaceutical compositions” (Uniwersytet W Bialymstoku, priority 2009, dated 2013).

Legend:
[1] = tested on: T-lymphoblastic leukemia cell line CEM; experiment: Calcein AM cytotoxicity assay, CEM; assay type: cell-based; conditions: Calcein AM assay, 72 h; means ± SD, three independent experiments in triplicate
Protocol: (§1) Stock solutions (10 mmol/l) of the tested compounds were prepared by dissolving relevant quantity of the substance in DMSO. […] Calcein AM was obtained from Molecular Probes (Invitrogen Corporation, CA, USA).
(§2) All cell lines were cultured in DMEM medium (Sigma, Mo., USA). Medium was supplemented with 10% heat-inactivated fetal bovine serum, 2 mmol/l L-glutamine and 1% penicillin-streptomycin. The cell lines were maintained under standard cell culture conditions at 37° C. and 5% CO2 in a humid environment. Cells were subcultured twice or three times a week using the standard trypsinization procedure.
(§3) All cell lines were cultured in DMEM medium (Sigma, Mo., USA) supplemented with 10% fetal calf serum, 2 mM glutamine, 100 U/ml penicillin and 100 μg/ml streptomycin, at 37° C. in a fully humidified atmosphere containing 5% CO2. Suspensions of these lines (ca. 1.0×10^5 cells/ml) were placed in 96-well microtitre plates and after 3 h of stabilization the tested compounds were added in serially diluted concentrations. Saponins were dissolved in dimethylsulfoxide (DMSO) before addition to cultures. Control cultures were treated with DMSO alone. The final concentration of DMSO in the reaction mixtures never exceeded 0.6%. Four-fold dilutions of the intended test concentration were added at time zero in 20 μl aliquots to the microtitre plate wells. Usually, each test compound was evaluated at six 4-fold dilutions and in routine testing; the highest well concentration was 50 μM, although this varied in a few cases, depending on the test compound. After 72 h of culture, the cells were incubated with Calcein AM solution (Molecular Probes) for 1 h. The fluorescence of viable cells was quantified using a Fluoroscan Ascent instrument (Microsystems).

[2] = tested on: human glioblastoma cell line T98; experiment: Calcein AM cytotoxicity assay, T98; assay type: cell-based; conditions: 72 h, means ± SD, three independent experiments in triplicate
Protocol: Stock solutions (10 mmol/l) of the tested compounds were prepared by dissolving relevant quantity of the substance in DMSO. Dulbecco's modified Eagle's medium (DMEM, RPMI 1640, F-12 medium), fetal bovine serum (FBS), L-glutamine, penicillin, streptomycin were purchased from Sigma (MO, USA). Calcein AM was obtained from Molecular Probes (Invitrogen Corporation, CA, USA).
The screening cell lines (T-lymphoblastic leukaemia cell line CEM, breast carcinoma cell line MCF-7, cervical carcinoma cell line HeLa, human glioblastoma cell line T98, human malignant melanoma G-361, human osteogenic sarcoma cell line HOS, carcinomic human alveolar basal epithelial cells A549, human colon carcinoma cells HCT 116 and human fibroblasts BJ) were obtained from the American Type Culture Collection (Manassas, Va., USA). All cell lines were cultured in DMEM medium (Sigma, Mo., USA). Medium was supplemented with 10% heat-inactivated fetal bovine serum, 2 mmol/l L-glutamine and 1% penicillin-streptomycin. The cell lines were maintained under standard cell culture conditions at 37° C. and 5% CO2 in a humid environment. Cells were subcultured twice or three times a week using the standard trypsinization procedure.
as §3, with “Cytotoxic activities of the novel compounds, obtained according to this invention, were tested in vitro against following cancer cell lines: T-lymphoblastic leukemia cell line CEM; breast carcinoma cell line MCF7, lung carcinoma cell line A549, cervical carcinoma cell line HeLa, malignant melanoma cell line G-361, osteosarcoma cell line HOS, human glioblastoma cell line T98, human colon carcinoma cells HCT 116 and normal human fibroblasts BJ. All” for “All”, “(Microsystems). The percentage of surviving cells in each well was calculated from the equation […]=(ODdrug exposed well/mean ODcontrol wells)×100%. The IC50 value, the drug concentration lethal to 50% of the tumour cells, was calculated from the obtained dose-response curves.” for “(Microsystems).”

[3] = tested on: cervical carcinoma cell line HeLa; experiment: Calcein AM cytotoxicity assay, HeLa; assay type: cell-based; conditions: 72 h, means ± SD, three independent experiments in triplicate
Protocol: as §1, §2, §3

[4] = tested on: malignant melanoma cell line G-361; experiment: Calcein AM cytotoxicity assay, G-361; assay type: cell-based, human; conditions: 72 h, means ± SD, three independent experiments in triplicate
Protocol: as §1, §2, §3

caspase-3/7 in CEM cells = experiment: Activity of caspases-3/7 in treated CEM cells (Ac-DEVD-AMC substrate); assay type: cell-based; conditions: 24 h, 7.5 μM and 10 μM (FIG. 4)
Protocol: The CEM cells treated with the novel compounds were harvested by centrifugations and homogenized in an extraction buffer (10 mM KCl, 5 mM HEPES, 1 mM EDTA, 1 mM EGTA, 0.2% CHAPS, inhibitors of proteases, pH 7.4) on ice for 20 min. The homogenates were clarified by centrifugation at 10,000 g for […] at 4° C., the proteins were quantified by the Bradford method and diluted to the same concentration. Lysates were then incubated for 1 h with […] Ac-DEVD-AMC as a substrate (Sigma-Aldrich) in an assay buffer (25 mM PIPES, 2 mM EGTA, 2 mM MgCl2, 5 mM DTT, pH 7.3). For negative controls, the lysates were supplemented with […] Ac-DEVD-CHO as a caspase-3/7 inhibitor (Sigma-Aldrich). The fluorescence of the product was measured using a Fluoroskan Ascent microplate reader (Labsystems) at 346/442 nm (ex/em). Here, we determined the activity of caspase-3/7 in CEM cells exposed to 3, 6 or 7 using a fluorogenic substrate Ac-DEVD-AMC and/or caspase 3/7 inhibitor […]. Cells were treated in a dose-dependent manner with compounds 3 (1; 2.5; 5 μM), 6 (0.1; 0.25; 0.5 μM) and 7 (5; 7.5; 10 μM).

[5] = tested on: lung carcinoma cell line A549; experiment: Calcein AM cytotoxicity assay, A549; assay type: cell-based, human; conditions: 72 h, means ± SD, three independent experiments in triplicate, read-out: IC50, A 549
Protocol: as §1, §2, §3

[6] = tested on: breast carcinoma cell line MCF7; experiment: Calcein AM cytotoxicity assay, MCF7; assay type: cell-based, human; conditions: Calcein AM assay, 72 h; means ± SD, three independent experiments in triplicate
Protocol: as §1, §2, §3

## C/C=C/C(=O)OC[C@@H](C)[C@@]1(O)[C@@H](O[C@@H]2OC[C@H](O)[C@H](O[C@@H]3OC[C@@H](O)[C@H](O)[C@H]3OC(=O)c3ccc(OC)cc3)[C@H]2OC(C)=O)C[C@H]2[C@@H]3CC=C4C[C@@H](O)CC[C@]4(C)[C@H]3CC[C@@]21C [Compound 7, (20R)-21-O-[(E)-but-2-enoyl]-20-methylpregn-5-ene-3β,16β,17α,21-tetraol 16-O-{2-O-(4-methoxybenzoyl)-β-D-xylopyranosyl-(1→3)-2′-O-acetyl-α-L-arabinopyranoside}]
[1]
  IC50: 340 ± 40 nM
[2]
  IC50: 940 ± 20 nM
[3]
  IC50: 1940 ± 50 nM
[4]
  IC50: 890 ± 90 nM
caspase-3/7 in CEM cells
  activity of caspase-3/7 compared with the untreated control: threefold increase
[5]
  IC50: 550 ± 200 nM
[6]
  IC50: 840 ± 510 nM
